Test [1] deals with T1, human CCK-2 receptor (Homo sapiens, UniProt P32239).
T1 construct: expressed in transfected cells; host or cells: A431 human squamous carcinoma cells (gift from L. Aloj)
T1 sequence (P32239 1-447): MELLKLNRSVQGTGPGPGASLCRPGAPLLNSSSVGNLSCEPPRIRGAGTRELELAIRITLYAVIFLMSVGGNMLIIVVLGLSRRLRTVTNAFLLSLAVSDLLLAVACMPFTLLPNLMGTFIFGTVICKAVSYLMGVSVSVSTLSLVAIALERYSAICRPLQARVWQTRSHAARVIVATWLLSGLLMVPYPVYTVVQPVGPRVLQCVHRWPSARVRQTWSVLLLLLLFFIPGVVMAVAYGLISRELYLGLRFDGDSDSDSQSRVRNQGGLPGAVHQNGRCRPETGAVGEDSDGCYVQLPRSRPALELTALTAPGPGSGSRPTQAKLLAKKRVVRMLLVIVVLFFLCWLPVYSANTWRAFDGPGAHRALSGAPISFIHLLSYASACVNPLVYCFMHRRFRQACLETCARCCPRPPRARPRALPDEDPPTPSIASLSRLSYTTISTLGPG
As to the kind of experiment: Whole cell receptor binding affinity (displacement of [125I]-[Leu15]-Gastrin I) on A431-CCK2R cells. The method, then: (§1) Receptor binding affinities were evaluated via a displacement cell-binding assay for metal free as well as metal bound ([^natGa]) conjugates. Binding of nonradioactive gallium was performed in analogy to the radiolabeling procedure but instead of the generator eluate a 100-fold molar excess of gallium bromide (GaBr3) dissolved in 100 μL 0.1 N HCl was used. Cells were prepared as described below and incubated with increasing concentrations [0.001–1000 nM] of competitor in triplicate. After addition of corresponding iodinated radioligand the 96-well MulitScreen Filter Plates HTS (1 μm glass fiber filter, Merck Millipore, Darmstadt, Germany) were incubated for 1 or 2 h at RT under shaking conditions (Compact shaker KS-15 control, 200/min) and after a washing step the remaining activity on the filter was measured in the γ-counter. The receptor affinity of DOTA-minigastrin11 as well as c(RGDyV) were determined under the corresponding conditions as a reference. IC50 values were calculated by using nonlinear curve fitting with following formula NS+SB/(1+x/IC50) on Origin 6.1 software (Northampton, MA, USA). A detailed description regarding iodination can be found in the Supporting Information.
A431-CCK2R cells were diluted in 50 mM HEPES buffer (pH 7.3) containing 5 mM MgCl2 and 0.3% BSA to a density of 5 × 10^6 cells/mL. 96-well plates were washed with 200 μL of 10 mM TRIS buffered saline (pH 7.3) and 100 μL of cell suspension were added to each well. Hereafter 50 μL of competitor solution {([^natGa])Sulfo-Cy7-FSC-MG or DOTA-minigastrin^11 diluted in 20 mM HEPES; 10 mM MgCl2 and 0.1% BSA} of each concentration were added and left for 10 min at RT. After incubation with 50 μL of radioligand (human [^125I]-[Leu^15]-Gastrin I 4.5 × 10^4 cpm) for 1 h the plate was washed twice with 200 μL TRIS-buffer/well.
For orientation: In a radioligand displacement assay an active substance lowers the binding of a labelled ligand.

Test [2] has as its system A431-CCK2R/A431-mock tumor xenograft-bearing BALB/c nude mice. Nature of the test: Near-infrared fluorescence imaging, A431-CCK2R/A431-mock xenografts. It is filed as in vivo, mouse. On the procedure:
All animal experiments were conducted in accordance with regulations and guidelines of the Czech Animal Protection Act (No. 246/1992), and with the approval of the Czech Ministry of Education, Youth, and Sports (MSMT-22421/2013–12), and the institutional Animal Welfare Committee of the Faculty of Medicine and Dentistry of Palacky University in Olomouc. The studies were performed using female 8–10-week-old athymic BALB/c nude mice (Envigo, Horst, The Netherlands). […]
Tumor xenografts were established near the front shoulder of mice by subcutaneous injection of 5 × 10^6 cells (U-87 MG) or 2 × 10^6 cells (A431-CCK2R) and the same amount of A431-mock cells as a control in 200 μL appropriate medium and Matrigel (1:1). […] Tumors, blood, muscle tissue, and organs were extracted, weighed, and activity uptake of the samples was measured in the gamma counter. Results were expressed as percentage of injected dose per gram tissue (% ID/g). […] After reconstruction, acquired data was viewed and analyzed with PMOD software (PMOD Technologies Ltd., Zurich, Switzerland). […] Near-infrared in vivo fluorescence imaging was performed with an In-Vivo MS FX PRO small animal imaging system (Bruker Biospin Corporation, Woodbridge, CT, USA). […] An appropriate filter set (excitation = 730 nm and emission = 790 nm) was used for acquiring the Sulfo-Cy7-FSC-peptide - fluorescence in vivo. […]

In test [3] the test system is A431-CCK2R cells. As to the kind of experiment: Fluorescence measured cell specificity, A431-CCK2R. Particulars: 2 h incubation, 3 nM ligand. The format is cell-based, human. On the procedure:
Fluorescence assays were conducted similarly to the internalization assays except for using lower cell numbers and determining only the cellbound fraction. Briefly, A431-CCK2R, M21, and M21-L cells were diluted in corresponding media to a density of 2 × 10^6 cells/mL. Aliquots of 0.5 mL were transferred to Eppendorf tubes—six technical replicates for A431-CCK2R unblocked and blocked and M21/M21-L, respectively—and treated in the same manner as described above. The nonradiolabeled particular ligand was added to a final concentration of 3 nM and the tubes were kept in an incubator (Incubator hood TH15 and Compact shaker KS-15 control, Edmund Bühler GmbH, Hechingen, Germany) at 37 °C for 2 h under vigorously shaking (420/min). After centrifugation (2 min, 5000 rpm) washing steps were performed as mentioned before. […] Fluorescence intensity was measured with Tecan Infinite 200 PRO series multiplate reader (Tecan Trading AG, Switzerland) by using Tecan Icontrol 1.1 software. Parameters were set as follows: Fluorescence Top reading; excitation/emission wavelength 740/790 nm; excitation bandwidth 9 nm; emission bandwidth 20 nm; gain optimal; number of flashes 25; integration time 25 μs. Results were calculated and expressed as percentage of cell-bound fluorescence in relation to the standards sample.

Test [4] concerns the target T2, integrin αvβ3 (Homo sapiens, UniProt P05106+P06756).
T2 construct: endogenous in cells; host or cells: human melanoma M21 cells (gift from D. A. Cheresh)
Nature of the test: Integrin binding affinity assay (displacement of [125I]-c(RGDyV)) on M21 cells. On the procedure:
as §1
Integrin binding affinity assay was adapted from Yun Wu et al.[31] Briefly, M21 cells were washed two times with phosphate buffered saline followed by suspension in binding buffer (=20 mM TRIS pH 7.4 + 150 mM NaCl + 2 mM CaCl2 + 1 mM MgCl2 + 1 mM MnCl2 0.1% BSA). 96-well plates were washed with 200 μL of 20 mM TRIS-buffer and seeded with 1 × 10^6 cells/well (10^7 cells/mL). After 10 min of incubation in the presence of the competitor {([^natGa])Sulfo-Cy7-FSC-RGD or c(RGDyV) diluted in binding buffer)} volume was adjusted to 200 μL/well by adding 50 μL of radioligand ([^125I]-c(RGDyV), 4.5 × 10^4 cpm) and the plate was left for 2 h at RT. Finally the supernatant was removed by vacuum and each well was washed three times with 200 μL ice-cold binding buffer.

Where [5] appears, read: metal-bound ([natGa]) complexed form.

Each structure is given as a SMILES string. *1 amine or outer side, *2 acyl side, *3 side chain or, on linkers, in order; H or OH if unused. Where a SMILES comes first, the peptide text is derived from it. Bridges are numbered along the chain shown (N, C = ends). Roman numbers before positions name the chains, in order. [ ]: non-standard residue; d: D form. X2 = CC1=CC(=O)N(O)CCCC(NC(=O)CCN2C(=O)CC([*:2])C2=O)C(=O)OCCC(C)=CC(=O)N(O)CCCC(NC(=O)CCN2C(=O)CC([*:1])C2=O)C(=O)OCCC(C)=CC(=O)N(O)CCCC(NC(=O)CCCCC[N+]2=C(C=CC3=CC(=CC=C4N(C)c5ccc(S(=O)(=O)O)cc5C4(C)C)CCC3)C(C)(C)c3cc(S(=O)(=O)[O-])ccc32)C(=O)OCC1; Mpa = O=C(O)CCS

T2 sequence (P06756 31-889 limits assumed): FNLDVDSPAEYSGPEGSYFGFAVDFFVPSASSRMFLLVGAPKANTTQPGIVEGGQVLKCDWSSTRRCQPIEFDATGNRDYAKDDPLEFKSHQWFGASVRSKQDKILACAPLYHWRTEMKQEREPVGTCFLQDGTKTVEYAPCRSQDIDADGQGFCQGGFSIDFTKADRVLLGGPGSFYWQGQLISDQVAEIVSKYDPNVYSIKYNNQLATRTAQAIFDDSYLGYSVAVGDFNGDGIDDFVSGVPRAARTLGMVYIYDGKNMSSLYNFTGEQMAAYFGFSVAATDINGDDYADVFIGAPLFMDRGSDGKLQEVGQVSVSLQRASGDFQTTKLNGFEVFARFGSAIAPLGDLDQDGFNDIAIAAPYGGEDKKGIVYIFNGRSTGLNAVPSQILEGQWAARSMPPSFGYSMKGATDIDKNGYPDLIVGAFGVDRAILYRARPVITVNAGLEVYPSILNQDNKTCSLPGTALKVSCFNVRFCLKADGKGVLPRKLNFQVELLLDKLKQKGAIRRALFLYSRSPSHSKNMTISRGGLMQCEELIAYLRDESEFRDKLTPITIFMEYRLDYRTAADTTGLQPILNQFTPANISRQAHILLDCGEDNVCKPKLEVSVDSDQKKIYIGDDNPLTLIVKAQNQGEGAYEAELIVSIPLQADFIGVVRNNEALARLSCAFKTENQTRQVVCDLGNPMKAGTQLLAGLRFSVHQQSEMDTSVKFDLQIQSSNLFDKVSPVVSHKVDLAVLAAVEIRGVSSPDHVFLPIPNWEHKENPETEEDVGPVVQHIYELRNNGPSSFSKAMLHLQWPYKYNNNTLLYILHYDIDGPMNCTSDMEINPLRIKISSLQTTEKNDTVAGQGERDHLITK
T2 sequence (P06756 891-1048 partner limits assumed): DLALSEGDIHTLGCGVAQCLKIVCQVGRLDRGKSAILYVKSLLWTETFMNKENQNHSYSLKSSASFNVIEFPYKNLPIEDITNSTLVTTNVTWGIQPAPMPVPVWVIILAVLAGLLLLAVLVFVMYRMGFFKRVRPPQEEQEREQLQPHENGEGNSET
T2 sequence (P05106 27-788): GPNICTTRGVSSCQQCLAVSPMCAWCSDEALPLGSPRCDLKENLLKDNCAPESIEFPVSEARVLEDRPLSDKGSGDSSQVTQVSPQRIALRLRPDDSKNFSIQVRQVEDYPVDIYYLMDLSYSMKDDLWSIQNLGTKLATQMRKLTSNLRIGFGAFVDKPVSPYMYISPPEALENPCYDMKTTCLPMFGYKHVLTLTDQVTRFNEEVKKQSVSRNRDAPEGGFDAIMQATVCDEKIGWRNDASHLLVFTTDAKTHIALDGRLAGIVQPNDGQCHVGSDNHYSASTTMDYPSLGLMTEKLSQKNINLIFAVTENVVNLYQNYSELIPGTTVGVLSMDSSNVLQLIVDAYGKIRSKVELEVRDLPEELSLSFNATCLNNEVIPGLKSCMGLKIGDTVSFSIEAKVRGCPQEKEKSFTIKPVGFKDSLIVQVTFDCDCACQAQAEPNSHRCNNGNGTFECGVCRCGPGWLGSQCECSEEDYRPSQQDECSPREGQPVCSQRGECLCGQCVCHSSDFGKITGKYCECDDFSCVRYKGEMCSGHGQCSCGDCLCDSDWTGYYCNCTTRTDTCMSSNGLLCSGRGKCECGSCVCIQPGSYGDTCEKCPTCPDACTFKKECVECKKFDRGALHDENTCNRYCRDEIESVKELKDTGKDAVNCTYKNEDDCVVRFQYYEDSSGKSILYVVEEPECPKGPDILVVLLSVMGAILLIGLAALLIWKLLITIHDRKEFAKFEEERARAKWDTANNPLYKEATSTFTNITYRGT

With `CSCC[C@H](NC(=O)[C@H](Cc1c[nH]c2ccccc12)NC(=O)CNC(=O)[C@H](Cc1ccc(O)cc1)NC(=O)[C@H](C)NC(=O)[C@@H](CCC(=O)O)NC(=O)CCSC1CC(=O)N(CCC(=O)NC2CCCN(O)C(=O)C=C(C)CCOC(=O)C(NC(=O)CCN3C(=O)CC(SCCC(=O)N[C@H](CCC(=O)O)C(=O)N[C@@H](C)C(=O)N[C@@H](Cc4ccc(O)cc4)C(=O)NCC(=O)N[C@@H](Cc4c[nH]c5ccccc45)C(=O)N[C@@H](CCSC)C(=O)N[C@@H](CC(=O)O)C(=O)N[C@@H](Cc4ccccc4)C(N)=O)C3=O)CCCN(O)C(=O)C=C(C)CCOC(=O)C(NC(=O)CCCCC[N+]3=C(C=CC4=CC(=CC=C5N(C)c6ccc(S(=O)(=O)O)cc6C5(C)C)CCC4)C(C)(C)c4cc(S(=O)(=O)[O-])ccc43)CCCN(O)C(=O)C=C(C)CCOC2=O)C1=O)C(=O)N[C@@H](CC(=O)O)C(=O)N[C@@H](Cc1ccccc1)C(N)=O` (stereo partly drawn) [Sulfo-Cy7-FSC-MG, Sulfo-Cyanine7-FSC-(mal-MG11)2] (I: [Mpa][dE]AYGWMDF-NH2 / II: [Mpa][dE]AYGWMDF-NH2; linker I:1-II:1 via X2), the IC50 (as a rule, the concentration needed to halve the response being measured) in test [1] (setting [5]) is 2.68 ± 0.53 nM; in test [1] (metal-free (uncomplexed) conjugate or reference peptide, radioligand [125I]-[Leu15]-Gastrin I, 1 h RT), 2.81 ± 0.66 nM. The figures for the “optical imaging tumor contrast” value in test [2] (2 h after injection) and in test [2] (5 h up to 3 days p.i.) were “moderate contrast” and “excellent contrast”, respectively. Moreover, the figures for the Fluorescence-determined cell uptake in test [3] (blocked A431-CCK2R cells) and in test [3] (nonblocked A431-CCK2R cells) were 1.65 ± 0.47% and 10.78 ± 1.04%, respectively.

As for `CSCC[C@H](NC(=O)[C@H](Cc1c[nH]c2ccccc12)NC(=O)CNC(=O)[C@H](Cc1ccc(O)cc1)NC(=O)[C@H](C)NC(=O)[C@@H](CCC(=O)O)NC(=O)CCSC1CC(=O)N(CCC(=O)NC2CCCN(O)C(=O)C=C(C)CCOC(=O)C(NC(=O)CCN3C(=O)CC(SCCC(=O)N[C@H](CCC(=O)O)C(=O)N[C@@H](C)C(=O)N[C@@H](Cc4ccc(O)cc4)C(=O)NCC(=O)N[C@@H](Cc4c[nH]c5ccccc45)C(=O)N[C@@H](CCSC)C(=O)N[C@@H](CC(=O)O)C(=O)N[C@@H](Cc4ccccc4)C(N)=O)C3=O)CCCN(O)C(=O)C=C(C)CCOC(=O)C(NC(=O)CCCCC[N+]3=C(C=CC4=CC(=CC=C5N(C)c6ccc(S(=O)(=O)O)cc6C5(C)C)CCC4)C(C)(C)c4cc(S(=O)(=O)[O-])ccc43)CCCN(O)C(=O)C=C(C)CCOC2=O)C1=O)C(=O)N[C@@H](CC(=O)O)C(=O)N[C@@H](Cc1ccccc1)C(N)=O` (stereo partly drawn) [[^natGa]Sulfo-Cy7-FSC-MG, metal not drawn] (I: [Mpa][dE]AYGWMDF-NH2 / II: [Mpa][dE]AYGWMDF-NH2; linker I:1-II:1 via X2), the IC50 in test [1] (setting [5]) was determined as 2.68 ± 0.53 nM.

As for `CC1=CC(=O)N(O)CCCC(NC(=O)CCN2C(=O)CC(SCCOCCOCCOCCOCCC(=O)NCCCC[C@@H]3NC(=O)[C@@H](Cc4ccccc4)NC(=O)[C@H](CC(=O)O)NC(=O)CNC(=O)[C@H](CCCNC(=N)N)NC3=O)C2=O)C(=O)OCCC(C)=CC(=O)N(O)CCCC(NC(=O)CCN2C(=O)CC(SCCOCCOCCOCCOCCC(=O)NCCCC[C@@H]3NC(=O)[C@@H](Cc4ccccc4)NC(=O)[C@H](CC(=O)O)NC(=O)CNC(=O)[C@H](CCCNC(=N)N)NC3=O)C2=O)C(=O)OCCC(C)=CC(=O)N(O)CCCC(NC(=O)CCCCC[N+]2=C(C=CC3=CC(=CC=C4N(C)c5ccc(S(=O)(=O)O)cc5C4(C)C)CCC3)C(C)(C)c3cc(S(=O)(=O)[O-])ccc32)C(=O)OCC1` (stereo partly drawn) [[^natGa]Sulfo-Cy7-FSC-RGD, metal not drawn], in test [4] ([natGa] bound form), the IC50 was 0.81 ± 0.19 nM.

With `CC(C)[C@@H]1NC(=O)[C@@H](Cc2ccc(O)cc2)NC(=O)[C@H](CC(=O)O)NC(=O)CNC(=O)[C@H](CCCNC(=N)N)NC1=O` [c(RGDyV), reference compound], the IC50 in test [4] (metal-free conjugate or reference peptide, radioligand [125I]-c(RGDyV), 2 h RT) was found to be 15.2 ± 2.86 nM.

For the origin of these results see PMC5481817, “Developing Targeted Hybrid Imaging Probes by Chelator Scaffolding” (Bioconjugate chemistry, 2017).
